From a melting point compilation (Tetko et al.; mined from patent text by program, amines drawn as free bases though some values may be those of a salt)

SMILES	melting point [°C]
CCCCOCCOc1ccc(-c2ccc(N3CCCCCC3)c(C=C(C)C(=O)O)c2)cc1	124 to 126
CC(=O)Oc1ccc(Cc2ccc(C(=O)O)nc2)cc1	116 to 119
CCCCc1cc2c(=O)n3cc(C(N)=O)ccc3nc2s1	266 to 267
COc1ccc2c(=O)cc(-c3ccc(O)c(O)c3)oc2c1	> 240
CNC(=S)NCCCSc1ncco1	43 to 45
O=C(Nc1ccc(C2CCN(Cc3ccccc3)CC2)cc1)c1ccccc1-c1ccc(C(F)(F)F)cc1	134
NC(=O)Cc1cc(Oc2ccc3c(ccn3C(=O)Nc3ccc(CN4CCN(C5CC5)CC4)c(C(F)(F)F)c3)c2)ncn1	122 to 126
CC(C)(C)OC(=O)C1CCCN1C(=O)c1ccc2c(Cl)cnc(Cl)c2c1 (racemic)	144 to 146
CCC[C@H]1CC[C@H](c2ncc(C(=O)OCC)c(O)n2)CC1	156 to 157
COc1cccc(OC)c1C=CC(=O)C=Cc1c(OC)cccc1OC	152 to 154
CNC(=S)NS(=O)(=O)c1cc(CCNC(=O)/C=C/c2cccs2)ccc1-c1ccco1	175 to 176
C=CCN(C)C(=S)Nc1ccccc1CC(=O)OC	46 to 47
CCCCC(CCC)c1ccc2[nH]c3cnc(C(=O)OCC)c(C)c3c2c1 (configuration not stated)	225 to 228
C[C@@H](NC(=O)c1ccc(-c2csnn2)cc1)[C@](O)(Cn1cncn1)c1ccc(F)cc1F	196 to 198
C=C1C(O)C(CO)OC1n1cc(Cl)c(N)nc1=O (configuration not stated)	168 to 170
CN1CCN(c2ccnc3c(NC(=O)c4c(Cl)cccc4Cl)cccc23)C1=O	238 to 242
CCN1c2ncc(CO)cc2C(=O)N(C)c2ccc(Cl)nc21	166 to 168
C[Si](C)(O[C@@H]1c2cc(Br)ccc2-c2ccc(Br)cc2[C@H]1O[Si](C)(C)c1ccccc1)c1ccccc1 (relative stereo)	103 to 104
O=C(O)COc1cc(Cl)c2c(c1)OCC(c1ccccc1)C2=O (configuration not stated)	171 to 173
COc1ccc2cc(C(N)=O)ccc2n1	212 to 214
O=C(N1CCOCC1)N1Cc2c(-c3noc(C4CC4)n3)ncn2-c2ccccc21	198
O=C(O)c1cccc(C(CC(=O)c2ccc(F)cc2)CC(=O)c2ccc(F)cc2)c1	205 to 207
COc1cccc2c(=O)n3c(cc12)SCCC3	117 to 118
CCCn1nc(C(=O)c2cccc(O)c2)c2cccc(C(F)(F)F)c21	118
COC1=C(c2cccc(C(F)(F)F)c2)C(=O)OC1	126
CCOC(=O)C(=[N+]=[N-])C(=O)c1cc(OC)ccc1C1CCc2cc(OC)ccc21 (configuration not stated)	97 to 99

SMILES	melting point [°C]
CC(=O)Nc1cc2c(cc1C#N)C=CC(C)(C)O2	136 to 137
CC(=O)OCC(=O)C1CCC2C3CCC4CC(OS(=O)(=O)c5ccc(C)cc5)CCC4(C)C3C(=O)CC12C (configuration not stated)	155 to 156
CON1CC(c2ccc(OCc3ccccc3)cc2)CC1=O (configuration not stated)	92 to 97
C=C(CN(C)C)C(O)c1ncc2c(c1O)COC2c1ccc(F)cc1 (configuration not stated)	198
CC(CCCO)C(c1cc(F)ccc1F)S(=O)(=O)c1ccc(Cl)cc1 (configuration not stated)	67 to 69
O=Cc1ccc2c(c1)Sc1ccccc1C=C2	114 to 116
CCn1c(=O)n(OCc2ccccc2)c(=O)c2cc(F)c(N3CCCC3)cc21	174 to 176
Cc1ncnc(-c2cc([N+](=O)[O-])c(C#N)cc2F)c1Cl	123 to 125
CC(=O)NC[C@H]1CN(c2ccc(-n3nccc3-c3ccc(C)cc3)c(F)c2)C(=O)O1	89.5 to 91.9
N#Cn1c(=O)c2ccccc2n(CCCCN2CCC(OC(c3ccccc3)c3ccccc3)CC2)c1=O	106 to 107
CCOC(=O)C1=CC(CF)(CF)Oc2ccc(Cl)cc21	76 to 78
CC(=O)Nc1cccc2c1C(=O)CCCC2	155 to 162
Cn1c(C(F)(F)F)cc(=O)n(-c2ccc3snc(C4OCCCS4)c3c2)c1=O (configuration not stated)	125 to 130
O=C(O)c1ccccc1NCCCc1ccccc1	103 to 105
C/C=C\NC(=O)c1c(Cl)cccc1[Si](C)(C)C	101 to 102
CCCS(=O)c1cc(OCCOc2ccccc2)ccc1C (configuration not stated)	115 to 116
O=C(c1nc(-c2ccccc2)nc2ccccc12)N1CCC(O)CC1	209
O=C1C(C(c2cc(F)ccc2F)S(=O)(=O)c2ccc(Cl)cc2)CCCN1CCCO (configuration not stated)	120 to 121
O=C(CBr)N[C@H](CO)Cc1ccccc1	83 to 85
COc1cccc(-n2ccc(=O)c(-c3ccnn3-c3ccccc3)n2)c1	110 to 111
N#CC(=Cc1ccc(O)c(O)c1)C(N)=S	213
CCCCc1nc2c(N)nc3cccnc3c2n1CCNC(=O)C(N)CC(C)C (configuration not stated)	60 to 65
NS(=O)(=O)c1cccc2c1S(=O)(=O)CC2	215 to 217
CSc1nc2cc(C(F)(F)F)ccc2n1NC(C)=O	175 to 178
O=C1c2ccccc2-c2oc(=O)c3ccccc3c21	254 to 256
COCCCc1cc(N(C)Cc2ccc(-c3ccc(C(F)(F)F)cc3)nc2C)ccc1OCC(=O)O	72 to 73

SMILES	melting point [°C]
CCCCc1nc(Cl)c(Cc2nnn[nH]2)n1Cc1ccc(C(=O)c2ccccc2C(=O)O)cc1	228 to 230
CCC(O)(CC)c1cc(Br)ccc1N	64 to 66
CN(C)C(=O)OC1c2nccnc2C(=O)N1c1ccc2ccc(Cl)nc2n1 (configuration not stated)	270
Clc1cccc2c1CN(Cc1c[nH]c3ccccc13)C2	163 to 165
CCc1cc(-c2cc(-c3ccc(C(=O)O)cc3)ccc2OCCO)ccc1N(CC)CC	206
CCOC(=O)c1cn(CC)c2cc(OS(=O)(=O)C(F)(F)F)c(F)cc2c1=O	83 to 85
C=CCNC(=O)c1c([Si](C)(C)C)sc2ccccc12	72 to 75
CCOc1cc2ncc(C#N)c(Nc3ccccc3)c2cc1OCC	168 to 170
COC(=O)[C@@H](O)[C@H](CC(C)C)NC(=O)OC(C)(C)C	84 to 85
COc1ccc(-c2cc(=O)n(C3CCCC3)nc2-c2ccc(OC)cc2)cc1	141 to 142
CC(C)(C)OC(=O)CCC(N)(CCC(=O)OC(C)(C)C)CCC(=O)OC(C)(C)C	84 to 86
CN1C(=O)[C@H](NC(=O)/C=C/c2ccccc2Cl)N=C(c2ccccc2)c2ccccc21	128 to 131
CCCCc1nc(I)c(C=O)[nH]1	80 to 85
CCn1ncc(OCc2ccc([Si](C)(C)C)cc2)c(Cl)c1=O	122 to 125
CC(=O)Oc1ccc(NC(=O)OC(C)(C)C)cc1C(=O)O	76 to 78
C=CCc1c(O)c2cccnc2n(-c2ccccc2)c1=O	248 to 250
CCCCCCCCCCCc1ccc(-c2ccc(OCC(C)CC)nn2)cc1 (configuration not stated)	78
CN1C(=O)CNC(c2cccc(Cl)c2)c2cc(C(=O)c3ccc(Cl)cc3)ccc21 (configuration not stated)	177
CC(C)NC(=O)CS(=O)CC(=O)c1ccc(-c2ccccc2)cc1 (configuration not stated)	138
C=C(c1cc(F)ccc1O)n1ccnc1	164 to 166
Cc1ccc(S(=O)(=O)ON=C2CCOc3cc(Cl)c(Cl)cc32)cc1	180 to 184
CC1(C)CC(=O)C(S(=O)(=O)Cc2ccc(Cl)cc2)=C(O)C1	111 to 113
O=C(NC1=NN(c2ccc(Cl)cc2)C(c2ccc(Cl)cc2)C1)C(F)(F)F (configuration not stated)	138 to 140
CCCCCCCCCCCCCCCCCCOc1c(OCC(CC)CCCC)ccc2c1C(=O)c1ccccc1C2=O (configuration not stated)	61 to 68
N#CC1=C(C2CCNCC2)Nc2n[nH]cc2C1c1ccccc1Cl (configuration not stated)	221
CC=CC(=O)Nc1n[nH]c2cc(Cl)ccc12	226

SMILES	melting point [°C]
Oc1ccc(Oc2cnc3ccccc3c2)cc1	250
O=c1c2cc(F)c(N3CCCC3)cc2n(CC2CC2)c(=O)n1OCc1ccccc1	198 to 200
O=C(CCc1ccc(O)c(Cl)c1)C1CCCC1	88 to 90
CCc1nnc(-c2ccc3occ(-c4ccc(SC)cc4)c3c2)o1	164 to 165
Nc1cccc(Br)c1-c1ncc[nH]1	164 to 165
CC(=O)N1CCN(Cc2cnc(-c3cc4c(Cl)ccc(N(C)S(=O)(=O)c5cccs5)c4[nH]3)s2)CC1	224 to 225
O=C1Nc2ccccc2SC1CCCO (configuration not stated)	59 to 60
O=C(O)c1ccc2[nH]cc(CCCCN3CCCC(Cc4ccccc4)C3)c2c1 (configuration not stated)	144 to 147
Cc1cccc(-c2nc3cccnn3c2-c2ccnc(NCc3ccco3)c2)c1	150 to 151
CCCc1cc([N+](=O)[O-])cc(C=O)c1O	69.5 to 70
CCCCNc1ccc2cc(Cl)cnc2c1C#N	89
COc1cc(OC)cc(-c2cc(NC(=O)CC(=O)C(F)(F)F)[nH]n2)c1	119 to 121
CCCc1c(C(=O)CCl)c2ccc(C(=O)OC)cc2n1Cc1ccccc1Cl	143 to 145
Oc1ccc2c(c1)C[C@@H](NC[C@H](O)c1ccc(OCc3ccccc3)c(CCOCc3ccccc3)c1)CC2	147 to 150
CCOC(=O)CC(=O)C=Cc1ccccc1[N+](=O)[O-]	72
CN1Cc2c(C(N)=S)ncn2-c2cccc(Cl)c2C1=O	300 to 302
CCC(=O)C(CCCCCCOc1ccc2c(c1)OCO2)C(=O)CC	45 to 46
Cc1ccc(O)c(Cn2c(NC3CCNC(CCN4CCOCC4)C3)nc3ccc(CCc4ccccc4)cc32)n1 (configuration not stated)	159
COc1ccc(C(=O)N2CCc3cc(O)c(OC)cc3C2)cc1	173 to 174
Cc1c(OCC(F)(F)F)ccnc1CS(=O)c1nc2cc(N3CCN(C)CC3)c(F)cc2[nH]1 (configuration not stated)	73 to 74
O=C(O)CCC(=O)C(=O)Nc1ccccc1	192 to 193
CCOCc1cccc2[nH]c3cnc(C(=O)OCC)c(COC)c3c12	94 to 97
CC(C)NCC(O)COc1cccc(Cl)c1Cl (configuration not stated)	94 to 96
CCN(CC)c1ccc(NC(=S)N(C)N)cn1	147 to 149
